{"source": "patent US11547705B2", "about": "“Combination of a PD-1 antagonist and a VEGF-R/FGFR/RET tyrosine kinase inhibitor for treating cancer” (MERCK SHARP & DOHME LLC, priority 2015, dated 2023)", "key": {"[1]": {"system": "mouse lung cancer cell line LL/2 (LLc1)", "experiment": "Anti-tumor effect in subcutaneous LL/2 (LLc1) transplantation model", "assay_type": "in vivo", "settings": "C57BL/6J mice, lenvatinib oral once daily, anti-PD-1 antibody 500 μg/head i.p. every 3 days", "method": "A DMEM culture medium (high-glucose type) containing 10% fetal bovine serum (FBS) and penicillin/streptomycin was used to culture a mouse lung cancer cell line LL/2 (LLc1) (ATCC number: CRL-1642). Next, phosphate buffered saline (PBS) was used to prepare a cell suspension having a concentration of 2.0×10^7 cells/mL. The cell suspension was subcutaneously transplanted at a dose of 0.1 mL on the right lateral side of the body of each of 7-week-old mice (C57BL/6J, female, Charles River Laboratories Japan Inc.). Eight (8) days after the transplantation, an electronic digital caliper (Digimatic™ Caliper; Mitutoyo Corporation) was used to measure the short and long diameters of a tumor of interest. The following equation was used to calculate the tumor volume TV. Tumor Volume TV (mm^3)=Long Diameter (mm)×Short Diameter (mm)×Short Diameter (mm)/2.\n(§1) Based on the tumor volumes on the first day of administration, grouping was carried out such that the average values of the tumor volumes were almost the same. A 1 mg/ml solution of lenvatinib was prepared using water for injection (Otsuka Pharmaceutical Co., Ltd.) and was orally administered at a dose of 0.2 mL/20 g mouse body weight once daily for 14 days. 0.2 mL of an administration sample containing 2.5 mg/mL of an anti-mouse-PD-1 antibody (Clone: RMP1-14, BioXCell, Catalog#: BE0146), which had been diluted with PBS, was intraperitoneally administered (at a dosage of 500 μg/head) once every 3 days a total of 5 times (day 1, day 4, day 7, day 10, and day 13, with the day of the grouping set to day 1). To the control group, Otsuka water for injection was orally administered at a dose of 0.2 mL/20 g mouse body weight once daily for 14 days. Each group including 5 mice was used to conduct the experiment. The day (day 15) after the final administration, the respective tumor volumes (TV) were determined for the control group, the lenvatinib administration group, the anti-mouse-PD-1 antibody administration group, and the combination administration group. The values obtained by logarithmically transforming the tumor volumes were used to carry out statistical analysis."}, "VEGFR2": {"molecular_target": "VEGFR2 (Homo sapiens, UniProt P35968)", "sequence (P35968 20-1356, species assumed)": "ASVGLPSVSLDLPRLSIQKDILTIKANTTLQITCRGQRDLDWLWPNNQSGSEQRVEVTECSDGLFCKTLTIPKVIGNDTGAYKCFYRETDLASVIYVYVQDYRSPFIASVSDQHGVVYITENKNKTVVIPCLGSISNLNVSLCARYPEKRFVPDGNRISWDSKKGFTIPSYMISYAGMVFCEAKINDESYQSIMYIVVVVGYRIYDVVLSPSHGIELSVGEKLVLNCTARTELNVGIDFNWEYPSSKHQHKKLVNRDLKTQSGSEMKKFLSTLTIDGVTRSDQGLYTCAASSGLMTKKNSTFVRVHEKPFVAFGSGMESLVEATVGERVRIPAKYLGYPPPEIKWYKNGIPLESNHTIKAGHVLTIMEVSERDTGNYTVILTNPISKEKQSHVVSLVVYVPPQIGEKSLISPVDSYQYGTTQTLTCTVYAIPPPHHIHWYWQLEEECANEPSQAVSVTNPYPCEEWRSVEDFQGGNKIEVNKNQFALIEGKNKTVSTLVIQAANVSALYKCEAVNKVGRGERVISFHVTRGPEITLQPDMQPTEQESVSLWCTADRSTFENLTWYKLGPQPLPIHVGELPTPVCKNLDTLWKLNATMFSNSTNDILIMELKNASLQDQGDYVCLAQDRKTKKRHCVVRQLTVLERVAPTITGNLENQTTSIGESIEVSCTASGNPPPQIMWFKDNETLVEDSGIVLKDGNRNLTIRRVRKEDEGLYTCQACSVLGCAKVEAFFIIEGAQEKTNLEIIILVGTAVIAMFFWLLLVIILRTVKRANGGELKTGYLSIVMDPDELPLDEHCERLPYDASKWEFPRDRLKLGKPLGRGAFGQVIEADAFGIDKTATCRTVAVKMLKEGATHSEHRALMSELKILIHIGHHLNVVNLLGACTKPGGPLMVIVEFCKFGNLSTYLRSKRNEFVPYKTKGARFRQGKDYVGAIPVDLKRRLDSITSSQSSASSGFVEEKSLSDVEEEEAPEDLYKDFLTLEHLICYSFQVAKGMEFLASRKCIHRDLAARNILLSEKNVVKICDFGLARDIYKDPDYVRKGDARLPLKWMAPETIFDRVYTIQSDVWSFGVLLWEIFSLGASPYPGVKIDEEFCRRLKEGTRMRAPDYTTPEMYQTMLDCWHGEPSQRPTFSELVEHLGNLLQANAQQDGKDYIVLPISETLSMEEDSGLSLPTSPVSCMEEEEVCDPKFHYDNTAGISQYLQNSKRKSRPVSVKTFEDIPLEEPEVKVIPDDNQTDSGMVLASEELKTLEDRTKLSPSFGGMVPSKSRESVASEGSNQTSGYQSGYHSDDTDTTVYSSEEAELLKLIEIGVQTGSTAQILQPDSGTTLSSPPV", "settings": "according to kinetic analysis; background statement; cited from earlier work"}, "[2]": {"system": "mouse colon carcinoma cell line CT26.WT", "experiment": "Anti-tumor effect in subcutaneous CT26.WT transplantation model, lenvatinib mesilate and anti-PD-L1 antibody", "assay_type": "in vivo", "settings": "BALB/c mice, lenvatinib mesilate oral once daily, anti-PD-L1 antibody 500 μg/head i.p. every 3 days", "method": "A RPMI1640 culture medium containing 10% FBS and penicillin/streptomycin was used to culture a mouse colon carcinoma cell line CT26.WT (ATCC number: CRL-2638). Hank's Balanced Salt Solution (HBSS) was used to prepare a cell suspension having a concentration of 3.0×10^7 cells/mL. The cell suspension was subcutaneously transplanted at a dose of 0.1 mL on the right lateral side of the body of each of 7-week-old mice (BALB/cAnNCrlCrlj, female, Charles River Laboratories Japan Inc.). 8 days after the transplantation, an electronic digital caliper (Digimatic™ Caliper; Mitutoyo Corporation) was used to measure the short and long diameters of a tumor of interest. The following equation was used to calculate the tumor volume TV. Tumor Volume TV (mm^3)=Long Diameter (mm)×Short Diameter (mm)×Short Diameter (mm)/2.\nas §1, with “of lenvatinib mesilate was prepared” for “of lenvatinib was prepared”, “of an anti-mouse-PD-L1 antibody, which had” for “of an anti-mouse-PD-1 antibody (Clone: RMP1-14, BioXCell, Catalog#: BE0146), which had”, “tumor volumes TV were determined” for “tumor volumes (TV) were determined”, “group, the anti-mouse-PD-L1 antibody administration” for “group, the anti-mouse-PD-1 antibody administration”"}, "[3]": {"settings": "Day 1 (day of grouping, first day of administration)"}}, "data": [{"compound": "COc1cc2nccc(Oc3ccc(NC(=O)NC4CC4)c(Cl)c3)c2cc1C(N)=O", "note": "[Lenvatinib, 4-[3-chloro-4-(cyclopropylaminocarbonyl)aminophenoxy]-7-methoxy-6-quinolinecarboxamide]", "values": [{"measurement": "Tumor Volume TV", "setting": "[1]; [3]", "result": 100, "unit": "mm^3"}, {"measurement": "Tumor Volume TV", "setting": "[1]; Day 4", "result": 243, "unit": "mm^3"}, {"measurement": "Tumor Volume TV", "setting": "[1]; Day 8", "result": 394, "unit": "mm^3"}, {"measurement": "Tumor Volume TV", "setting": "[1]; Day 10", "result": 553, "unit": "mm^3"}, {"measurement": "Tumor Volume TV", "setting": "[1]; Day 13", "result": 837, "unit": "mm^3"}, {"measurement": "Tumor Volume TV", "setting": "[1]; Day 15 (day after final administration)", "result": 1143, "unit": "mm^3"}, {"measurement": "inhibition of kinase activity", "setting": "VEGFR2", "result": "rapid and potent inhibition of kinase activity"}, {"measurement": "Tumor Volume TV", "setting": "[2]; [3]", "result": 154, "unit": "mm^3"}, {"measurement": "Tumor Volume TV", "setting": "[2]; Day 4", "result": 472, "unit": "mm^3"}, {"measurement": "Tumor Volume TV", "setting": "[2]; Day 8", "result": 1172, "unit": "mm^3"}, {"measurement": "Tumor Volume TV", "setting": "[2]; Day 11", "result": 1555, "unit": "mm^3"}]}]}
